Experimental findings from patent US20240101535A1, “DIHYDROISOQUINOLINONE DERIVATIVE AND APPLICATION THEREOF” (ETERN BIOPHARMA (SHANGHAI) CO., LTD., priority 2020, published 2024) are described below.

Where only a bound is given, the exact number is not on record here.

Experiment [1] addresses WDR5 protein (22-334aa) with MLL1 polypeptide (3672-3773aa) (Homo sapiens, UniProt P61964). Kind of experiment: WDR5-MLL PPI inhibitory activity test (HTRF). It counts as binding. The settings on record: His-tagged WDR5 and biotin-tagged MLL1 polypeptide. The source says:
Test Example 1: WDR5-MLL PPI Inhibitory Activity Test
Effect of the compounds on WDR5 (WD Repeat Domain 5) and MLL1 (mixed-lineage leukemia 1) peptides at molecular level.
The effect of the compound on the interaction of WDR5 protein (22-334aa) with MLL1 polypeptide (3672-3773aa) was detected by HTRF (Homogeneous Time-Resolved Fluorescence) technology. When the N-terminal His-tagged WDR5 recognized by the Anti-6His-Eu cryptate donor interacts with the biotin-tagged MLL1 polypeptide recognized by the streptavidin-APC receptor, the donor and acceptor are pulled close enough to produce fluorescence resonance energy transfer (FRET). […] Therefore, the decrease in FRET signal can reflect the compound's inhibition on the interaction of WDR5 with MLL1 polypeptide.
The compound to be tested was diluted 3-fold with DMSO. […] Then the compound was diluted with reaction buffer (25 mM HEPES pH=7.5, 100 mM NaCl, 0.05% Tween 20) to control the final concentration of DMSO at 0.5%. In a 384-well plate, 1 μL of compound and 3 μL of 42 nM WDR5 protein were added, centrifuged at 1000 rpm for 1 min, incubated at room temperature for 60 min, followed by adding 3 μL of 333 nM MLL1 polypeptide with incubation at room temperature for 10 min, and followed by adding 3 μL of a mixed liquid of Anti-6His-Eu cryptate and streptavidin-APC with centrifugation at 1000 rpm for 1 mi and incubation at room temperature protected from light for 60 min, using a multifunction microplate reader (EnVision®2105) to read the signal. The following controls were set up per plate: control group (1 μL with 5% DMSO reaction buffer, 3 μL of 42 nM WDR5, 3 μL of MLL1 polypeptide, 3 μL of Anti-6His-Eu cryptate and streptavidin-APC). Blank group (1 μL reaction buffer with 5% DMSO, 3 μL reaction buffer, 3 μL MLL1 polypeptide, 3 μL Anti-6His-Eu cryptate and streptavidin-APC). The test data was calculated according to the signal ratio of two beams of fluorescence at different wavelengths: (665 nm signal/620 nm signal)*10000. […] The IC50 value was calculated using XLfit software.
(Time-resolved FRET reads energy transfer from a long-lived donor to a nearby acceptor.)

Experiment [2] has as its system MV4-11 cells. Put plainly: MV4-11 cell proliferation inhibition experiment (CellTiter-Glo). The following applies: Homo sapiens, 144 h, 6 days, read-out: cell proliferation inhibitory activity. It counts as cell-based. The protocol:
Test Example 2: MV4-11 Cell (ATCC: CRL-9591) Proliferation Inhibition Experiment
ATP in living cells was quantitatively detected by CellTiter-Glo (Promega-G7573) Luminescence Cell Viability Assay Kit to determine the effect of the compounds to be tested on cell proliferation. • Step 1: MV4-11 cells were seeded in 96-well plates (Greiner-655098) at a density of 1,500 cells per well with a volume of 140 μL per well; Cell culture medium components included RPM11640 (Gibco-A10491-01)+10% FBS (Gibco-10099-141C)+1% Penicillin-Streptomycin (5,000 U/mL, Gibco-15070-063). • Step 2: On the day of cell seeding, the cells were treated with the compound to be tested. The compound to be tested was diluted with a 3-fold gradient, and a total of 9 concentration gradients were set. DMSO (Sigma, D2650) with 0.5% final concentration or a DMSO solution containing the compound to be tested was added per well with 2 or 3 replicate wells at each concentration point. The plates were incubated at 37° C. in a 5% CO2 incubator (Thermo Scientific Steri-Cycle 371) for 6 days. • Step 3: The cell viability in the control and treatment groups was detected with CellTiter-Glo Luminescent Cell Viability Assay Kit. 50 μL of CellTiter-Glo was added per well, mixed well, and incubated for 15 min at room temperature protected from light. According to the kit instructions, the chemiluminescence signal was read using a multifunctional microplate reader (EnVision, PerkinElmer).
The inhibition percentage (%) of the compound at each concentration point was calculated by the following formula:
Inhibition Percentage (%)=(1−signal value of the group treated with the compound/signal value of the group treated with DMSO)*100.
The value of cell proliferation semi-inhibitory concentration IC50 was calculated using GraphPad Prism software, and the results are shown in Table 2.
For orientation: Cellular ATP, detected with luciferase, serves as a proxy for viable cell number.

For the compound `CCOc1cc([C@H](C)N2CC3(CCC3)c3c(CN4CCC(NC)CC4)cc(Cn4ccnc4NC)cc3C2=O)ncc1C#N` [Compound 75, (S)-4-ethoxy-6-(1-(7′-((2-(methylamino)-1H-imidazol-1-yl)methyl)-5′-((4-(methylamino)piperidin-1-yl)methyl)-1′-one-1′H-spiro[cyclobutan-1,4′-isoquinoline]-2′(3′H)-yl)ethyl)nicotinonitrile], the IC50 in experiment [1] was less than 20 nM. On the same count and under the same terms, next, `CCOc1cc(C(C)N2CC3(CCC3)c3c(CN(C)C)cc(Cn4ccc5ncccc54)cc3C2=O)ncc1C#N` (stereo not shown) [Compound 108, 6-(1-(7′-((1Hpyrrol[3,2-b]pyridine-1-yl)methyl)-5′-((dimethylamino)methyl)-1′-oxo-1′H-spiro[cyclobutan-1,4′-isoquinoline]-2′(3′H)-yl)ethyl)-4-ethoxynicotinonitrile]: 20 to 100 nM; `CCOc1cc([C@H](C)N2CC3(CC3)c3c(C(=O)N(C)C)cc(Cn4ccnc4NC)cc3C2=O)ncc1F` [Compound 110]: less than 20 nM. With `CCOc1cc([C@H](C)N2CC3(CCCC3)c3c(CN(C)C)cc(Cn4ccnc4NC)cc3C2=O)ncc1F` [Compound 19, (S)-5′-((dimethylamino)methyl)-2′-(1-(4-ethoxy-5-fluoropyridine-2-yl)ethyl)-7′-((2-(methylamino)-1H-imidazol-1-yl)methyl)-2′,3′-dihydro-1′H-spiro[cyclopentan-1,4′-isoquinoline]-1′-one], the figures for the IC50 in experiment [1] and in experiment [2] were less than 20 nM and less than 50 nM, respectively. `CCOc1cc([C@H](C)N2CC3(CC3)c3c(CN(C)C)cc(Cn4cnc5c4CCCC5)cc3C2=O)ncc1F` [Compound 114, (S)-5′-((dimethylamino)methyl)-2′-(1-(4-ethoxy-5-fluoropyridine-2-yl)ethyl)-7′-((4,5,6,7-tetrahydro-1H-benzo[d]imidazol-1-yl)methyl)-2′,3′-dihydro-1′H-spiro[cyclopropan-1,4′-isoquinoline]-1′-one]: the IC50 in experiment [1] was less than 20 nM.

Regarding `CCOc1cc([C@H](C)N2C[C@@]3(CC3(F)F)c3c(CN(C)C)cc(Cn4ccnc4NC)cc3C2=O)ncc1F` (stereo in doubt) [Compound 97, (R)-5′-((dimethylamino)methyl)-2′-((S)-1-(4-ethoxy-5-fluoropyridine-2-yl)ethyl)-2,2-difluoro-7′-((2-(methylamino)-1H imidazol-1-yl)methyl)-2′, 3′-dihydro-1′H-spiro[cyclopropan-1,4′-isoquinoline]-1′-one], the IC50 in experiment [1] is less than 20 nM. In the case of `CCOc1cc([C@H](C)N2CC3(CCC3)c3c(CN4CCNCC4)cc(Cn4ccnc4NC)cc3C2=O)ncc1C#N` [Compound 49, (S)-4-ethoxy-6-(1-(7′-((2-(methylamino)-1H-imidazol-1-yl)methyl)-1′-one-5′-(piperazin-1-ylmethyl)-1′H-spiro[cyclobutan-1,4′-isoquinoline]-2′(3′H)-yl)ethyl)nicotinonitrile], the IC50 in experiment [1] is less than 20 nM. Same read-out and setting: next, `CCOc1cc([C@H](C)N2CC3(CC3)c3c(CN4CCCCC4)cc(Cn4ccnc4NC)cc3C2=O)ncc1F` [Compound 7]: less than 20 nM. On the same count and under the same terms, next, `CNc1nccn1Cc1cc(CN(C)C)c2c(c1)C(=O)N(C(C)c1ccc(O)c(O)c1)CC21CCC1` (stereo not shown) [Compound 115, 2′-(1-(3,4-dihydroxylphenyl)ethyl)-5′-((dimethylamino)methyl)-7′-((2-(methylamino)-1H-imidazol-1-yl)methyl)-2′,3′-dihydro-1′H-spiro[cyclobutan-1,4′-isoquinoline]-1′-one]: 20 to 100 nM; `CCOc1cc(CN2CC3(CC3)c3c(CN4CCN(C)CC4)cc(Cn4ccnc4NC)cc3C2=O)ncc1F` [Compound 69, 2′-((4-ethoxy-5-fluoropyridine-2-yl)methyl)-7′-((2-(methylamino)-1H-imidazol-1-yl)methyl)-5′-((4-methylpiperazin-1-yl)methyl)-2′,3′-dihydro-1′H-spiro[cyclopropan-1,4′-isoquinoline]-1′-one]: less than 20 nM.

In turn, `CCOc1cc([C@H](C)N2CC3(CCC3)c3c(CN4CCC(N(C)C)CC4)cc(Cn4ccnc4NC)cc3C2=O)ncc1C#N` [Compound 74] returned an IC50 in experiment [1] of less than 20 nM.

`CCOc1cc([C@H](C)N2CC3(CC3)c3c(CN4CCN(CCC(F)(F)F)CC4)cc(Cn4ccnc4NC)cc3C2=O)ncc1F` [Compound 65] yielded an IC50 in experiment [1] of less than 20 nM. Compound `CCOc1cc(C(C)N2CC3(CCC3)c3c(CN4CC5(CNC5)C4)cc(Cn4ccnc4NC)cc3C2=O)ncc1C#N` (stereo not shown) [Compound 102] gave an IC50 in experiment [1] of 20 to 100 nM. Still for that read-out and setting: next, `CCOc1cc([C@@H](C)N2C[C@@]3(CC3(F)F)c3c(CN(C)C)cc(Cn4ccnc4NC)cc3C2=O)ncc1F` [Compound 90, (R)-5′-((dimethylamino)methyl)-2′-((R)-1-(4-ethoxy-5-fluoropyridine-2-yl)ethyl)-2,2-difluoro-7′-((2-(methylamino)-1H imidazol-1-yl)methyl)-2′, 3′-dihydro-1′H-spiro[cyclopropan-1,4′-isoquinoline]-1′-one]: less than 20 nM.

Compound `CCOc1cc([C@H](C)N2CC3(CCC3)c3c(CN4CCN(C(C)=O)CC4)cc(Cn4ccnc4NC)cc3C2=O)ncc1F` [Compound 86, (S)-5′-((4-acetylpiperazin-1-yl)methyl)-2′-(1-(4-ethoxy-5-fluoropyridine-2-yl)ethyl)-7′-((2-(methylamino)-1H-imidazol-1-yl)methyl)-2′,3′-dihydro-1′H-spiro[cyclobutyl-1,4′-isoquinoline]-1′-one] displayed an IC50 in experiment [1] of less than 20 nM. The same measure, in the same setting: next, `CCOc1cc([C@H](C)N2CC3(CC3)c3c(CN4CCN(CC(F)(F)F)CC4)cc(Cn4ccnc4NC)cc3C2=O)ncc1F` [Compound 62]: less than 20 nM; `CCOc1cc(CN2CC3(CC3)c3c(CN(C)C)cc(Cn4ccnc4NC)cc3C2=O)ncc1F` [Compound 76, 5′-((dimethylamino)methyl)-2′-((4-ethoxy-5-fluoropyridine-2-yl)methyl)-7′-((2-(methylamino)-1H-imidazol-1-yl)methyl)-2′,3′-dihydro-1′H-spiro[cyclopropan-1,4′-isoquinoline]-1′-one]: 20 to 100 nM.

Consider `CCOc1cc([C@H](C)N2CC3(CC3)c3c(CN4CC(N(C)C)C4)cc(Cn4ccnc4NC)cc3C2=O)ncc1F` [Compound 58, (S)-5′-((3-(dimethylamino)azetidinyl-1-yl)methyl)-2′-(1-(4-ethoxy-5-fluoropyridine-2-yl)ethyl)-7′-((2-(methylamino)-1H-imidazol-1-yl)methyl)-2′,3′-dihydro-1′H-spiro[cyclopropan-1,4′-isoquinoline]-1′-one], for which the IC50 in experiment [1] was less than 20 nM. Consider `CCOc1cc(CN2CC3(CCC3)c3c(CN(C)C)cc(Cn4ccnc4C)cc3C2=O)ncc1C#N` [Compound 117, 6-((5′-((dimethylamino)methyl)-7′-((2-methyl-1H-imidazol-1-yl)methyl)-1′-oxo-1′H-spiro[cyclobutan-1,4′-isoquinoline]-2′-3′H-yl)methyl)-4-ethoxynicotinonitrile], for which the IC50 in experiment [1] was less than 20 nM. With `CCOc1cc([C@H](C)N2CC3(CC3)c3c(CN(C)CC#N)cc(Cn4ccnc4NC)cc3C2=O)ncc1F` [Compound 43], the IC50 in experiment [1] was less than 20 nM. On the same count and under the same terms, the figure for `CCOc1cccc2c1CCC2N1CC2(CCC2)c2c(CN(C)C)cc(Cn3ccnc3NC)cc2C1=O` (stereo not shown) [Compound 113, 5′-((dimethylamino)methyl)-2′-(4-ethoxy-2,3-dihydro-1H-indene-1-yl)-7′-((2-(methylamino)-1H-imidazol-1-yl)methyl)-2′,3′-dihydro-1′H-spiro[cyclobutan-1,4′-isoquinoline]-1′-one] is less than 20 nM.
